# According to PMC12615753, “Glutathione as a taste modulator: molecular mechanisms of interaction with umami and sweet taste receptors” (Food Chemistry: Molecular Sciences, 2025):
# Assays:
# [1] = target: T1, hTAS1R1 H71Y/rTAS1R3 (UniProt Q7RTX1+Q923K1, H71Y); assay: cell-based; format: cell-based, human, rat
# T1 construct: UniProtKB number Q7RTX1–1); The cDNA coding region of rTAS1R3 was synthesized with optimized-codon usage for human expression; expressed in transfected cells; host or cells: HEK293T/17
# T1 sequence (Q7RTX1 21-841 H71Y): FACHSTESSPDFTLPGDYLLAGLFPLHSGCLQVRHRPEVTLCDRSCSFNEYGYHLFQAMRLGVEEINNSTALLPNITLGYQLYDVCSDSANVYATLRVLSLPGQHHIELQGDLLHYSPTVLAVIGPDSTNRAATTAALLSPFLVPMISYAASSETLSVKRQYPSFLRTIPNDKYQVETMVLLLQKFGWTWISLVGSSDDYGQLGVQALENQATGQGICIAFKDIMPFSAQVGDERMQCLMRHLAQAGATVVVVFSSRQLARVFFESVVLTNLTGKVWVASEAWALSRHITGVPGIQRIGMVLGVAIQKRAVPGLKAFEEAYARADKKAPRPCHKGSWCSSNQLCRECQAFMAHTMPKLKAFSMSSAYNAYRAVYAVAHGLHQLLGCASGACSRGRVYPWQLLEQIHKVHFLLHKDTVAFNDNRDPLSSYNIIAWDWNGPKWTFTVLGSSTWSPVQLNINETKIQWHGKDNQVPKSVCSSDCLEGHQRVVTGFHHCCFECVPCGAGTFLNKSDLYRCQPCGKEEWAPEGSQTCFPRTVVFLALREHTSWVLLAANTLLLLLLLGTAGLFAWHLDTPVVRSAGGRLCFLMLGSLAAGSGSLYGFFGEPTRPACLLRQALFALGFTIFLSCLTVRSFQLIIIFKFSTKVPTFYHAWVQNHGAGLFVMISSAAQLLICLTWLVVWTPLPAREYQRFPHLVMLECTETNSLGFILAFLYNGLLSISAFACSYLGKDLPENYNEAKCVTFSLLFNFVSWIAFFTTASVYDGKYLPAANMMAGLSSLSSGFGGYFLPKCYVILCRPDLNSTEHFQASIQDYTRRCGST
# T1 sequence (Q923K1 21-858): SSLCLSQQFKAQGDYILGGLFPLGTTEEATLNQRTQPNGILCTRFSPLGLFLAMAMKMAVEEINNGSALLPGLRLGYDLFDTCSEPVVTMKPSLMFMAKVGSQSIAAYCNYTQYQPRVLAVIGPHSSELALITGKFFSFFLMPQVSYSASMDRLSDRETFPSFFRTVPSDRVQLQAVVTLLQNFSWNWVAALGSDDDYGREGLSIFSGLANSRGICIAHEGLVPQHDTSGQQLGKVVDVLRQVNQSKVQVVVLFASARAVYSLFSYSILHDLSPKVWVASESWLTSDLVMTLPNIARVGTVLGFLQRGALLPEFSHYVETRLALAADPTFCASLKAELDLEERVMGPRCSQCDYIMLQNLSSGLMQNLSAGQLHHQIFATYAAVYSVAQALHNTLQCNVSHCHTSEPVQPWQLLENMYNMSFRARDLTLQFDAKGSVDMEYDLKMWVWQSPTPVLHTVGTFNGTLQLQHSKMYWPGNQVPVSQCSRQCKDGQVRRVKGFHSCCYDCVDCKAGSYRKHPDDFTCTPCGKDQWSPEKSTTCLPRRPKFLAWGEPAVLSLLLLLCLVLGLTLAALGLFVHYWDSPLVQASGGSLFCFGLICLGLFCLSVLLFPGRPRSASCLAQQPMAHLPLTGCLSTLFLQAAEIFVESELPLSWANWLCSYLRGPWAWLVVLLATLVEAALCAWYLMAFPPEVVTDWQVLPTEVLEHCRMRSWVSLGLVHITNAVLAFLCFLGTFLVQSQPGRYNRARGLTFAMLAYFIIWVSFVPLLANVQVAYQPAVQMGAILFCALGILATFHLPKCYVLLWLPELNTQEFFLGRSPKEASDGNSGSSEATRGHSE
# From the text: Chimeric Gα proteins, such as Gα16Gust44, Gα16Gi3 or Gα15i2, are widely used in the functional expression of TAS1R receptors ([Backes et al., 2015]; [Suess et al., 2015]; [Toda et al., 2021], [Toda et al., 2013], [Toda et al., 2018]; [Zhang et al., 2008]). Chimeric Gα15i2 (([Toda et al., 2013]), Supplementary data) was generated by replacing the last five residues of the C-terminal tail of rat Gα15i2 (EINLL) (UniProt number G3V6N8; https://www.uniprot.org/uniprot/) with the counterpart sequence from human GNAI2 (DCGLF) (UniProt number P04899-1) and cloning into the pcDNA3.1/Hygro vector (Invitrogen, Thermo Fisher Scientific, Illkirch, France) between the HindIII and NotI restriction sites, resulting in the plasmid pcDNA3.1-Gα15i2. Chimeric Gα16Gust44 construct have already been reported ([Raliou et al., 2011]). Briefly, Gα16Gust44 was generated by replacing the C-terminal of Gα16 with the C-terminal 44 residues of gustducin. As previously described, hTAS1R1 was amplified from human fungiform papillae cDNA and cloned and inserted into pcDNA3 (Invitrogen), generating pcDNA3-TAS1R1-WT (wild-type) ([Raliou et al., 2011]). […] The cDNA coding region of rTAS1R3 was synthesized with optimized-codon usage for human expression (Genewiz) and was cloned and inserted into the mammalian pcDNA4/myc-HisA (Invitrogen) expression vector between the EcoRI and NotI restriction sites, resulting in the plasmid pcDNA4-rTAS1R3. […] The sequence integrity of all the plasmid constructs was verified via automated DNA sequencing (Genewiz).
# The hTAS1R1 mutants were co-expressed with the rTAS1R3 subunit in HEK293 cells. […] As a control, the functionality of the mutated receptors was checked after stimulation with S807 (Fig. S8), which interacts with TAS1R1-TMD ([Zhang et al., 2008]).
# [2] = target: hTAS1R3 (Homo sapiens, UniProt Q7RTX0); conditions: GSH alone; Fig. 5B
# Protocol: HEK293T/17 cells (ATCC CRL-11268) were seeded into clear bottom black 96-well plates coated with poly-D-lysine at a density of 32500 cells/well in 100 μL of DMEM containing 4.5 g/L glucose and supplemented with penicillin/streptomycin, 2 mM GlutaMAX and 10 % dialyzed fetal bovine serum. The plates were incubated for 24 h at 37 °C and 7.3 % CO2 in a humidified atmosphere. After incubation, using Fugene® 4 K (0.46 μL/well, Promega, Illkirch, France), the cells were transiently transfected with pcDNA3-hTAS1R1-WT (60 ng/well) or TAS1R1 mutants, pcDNA4-rTAS1R3 (60 ng/well), pcDNA3-Gα15i2 (10 ng/well), and pGP-CMV-GCaMP6s (Addgene #40753; 10 ng/well) as a genetically encoded calcium indicator. […] After 20 s of basal fluorescence calcium measurement, the cells were stimulated via automatic injection of a range of compounds in eight wells, and the signal emission was recorded for an additional 70 s, via a FlexStation 3® fluorometric microplate reader (Molecular Devices, San Jose, CA, USA). […] The emitted fluorescence was measured at a wavelength of 510 nm after excitation at 488 nm. […] For each well, the decrease in the raw fluorescence as the relative fluorescence changed was calculated as ΔF/F0. Replicates were averaged for the wells subjected to the same stimuli, the background signal was subtracted, and the fluorescence changes in mock-transfected cells were subtracted. […]
# [3] = target: T2, hTAS1R1/hTAS1R3(r570–858) (Homo sapiens, UniProt Q7RTX1); assay: Calcium assay, chimeric TAS1R3 co-expressed with hTAS1R1; format: cell-based, rat; conditions: data not shown
# T2 construct: UniProtKB number Q7RTX1–1); expressed in transfected cells; host or cells: HEK293T/17 (inferred from the general method)
# From the text: (§1) Chimeric Gα proteins, such as Gα16Gust44, Gα16Gi3 or Gα15i2, are widely used in the functional expression of TAS1R receptors ([Backes et al., 2015]; [Suess et al., 2015]; [Toda et al., 2021], [Toda et al., 2013], [Toda et al., 2018]; [Zhang et al., 2008]). Chimeric Gα15i2 (([Toda et al., 2013]), Supplementary data) was generated by replacing the last five residues of the C-terminal tail of rat Gα15i2 (EINLL) (UniProt number G3V6N8; https://www.uniprot.org/uniprot/) with the counterpart sequence from human GNAI2 (DCGLF) (UniProt number P04899-1) and cloning into the pcDNA3.1/Hygro vector (Invitrogen, Thermo Fisher Scientific, Illkirch, France) between the HindIII and NotI restriction sites, resulting in the plasmid pcDNA3.1-Gα15i2. Chimeric Gα16Gust44 construct have already been reported ([Raliou et al., 2011]). Briefly, Gα16Gust44 was generated by replacing the C-terminal of Gα16 with the C-terminal 44 residues of gustducin. As previously described, hTAS1R1 was amplified from human fungiform papillae cDNA and cloned and inserted into pcDNA3 (Invitrogen), generating pcDNA3-TAS1R1-WT (wild-type) ([Raliou et al., 2011]). […]
# [4] = target: T3, hTAS1R1/hTAS1R3(r1–575) (Homo sapiens, UniProt Q7RTX1); assay: as above; format: cell-based, rat; conditions: data not shown
# T3 construct: UniProtKB number Q7RTX1–1); expressed in transfected cells; host or cells: HEK293T/17 (inferred from the general method)
# From the text: as §1
# T2 sequence (Q7RTX1 21-841): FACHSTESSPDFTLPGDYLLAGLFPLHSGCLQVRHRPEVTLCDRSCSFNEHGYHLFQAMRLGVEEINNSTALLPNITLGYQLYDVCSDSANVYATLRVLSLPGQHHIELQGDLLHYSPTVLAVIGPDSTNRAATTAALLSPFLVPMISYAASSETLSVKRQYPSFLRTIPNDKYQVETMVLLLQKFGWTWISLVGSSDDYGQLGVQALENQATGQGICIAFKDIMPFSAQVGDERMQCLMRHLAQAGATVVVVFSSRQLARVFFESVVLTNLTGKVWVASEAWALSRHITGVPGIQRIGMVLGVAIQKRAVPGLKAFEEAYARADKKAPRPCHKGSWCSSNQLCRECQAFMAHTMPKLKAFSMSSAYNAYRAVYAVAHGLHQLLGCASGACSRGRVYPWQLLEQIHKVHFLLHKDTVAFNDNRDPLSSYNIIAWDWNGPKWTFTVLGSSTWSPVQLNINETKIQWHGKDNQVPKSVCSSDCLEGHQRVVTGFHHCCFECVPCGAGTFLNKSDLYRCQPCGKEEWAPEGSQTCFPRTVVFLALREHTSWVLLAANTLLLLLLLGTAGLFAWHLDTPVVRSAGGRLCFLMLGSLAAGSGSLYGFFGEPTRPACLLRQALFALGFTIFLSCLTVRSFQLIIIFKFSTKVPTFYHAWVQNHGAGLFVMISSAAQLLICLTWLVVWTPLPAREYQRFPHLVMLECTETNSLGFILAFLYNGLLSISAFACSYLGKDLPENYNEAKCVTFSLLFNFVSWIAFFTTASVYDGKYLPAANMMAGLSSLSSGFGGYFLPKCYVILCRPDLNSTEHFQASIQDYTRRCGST
# T3 sequence (Q7RTX1 21-841): as above
# Chain of hTAS1R3 (Q7RTX0 21-852): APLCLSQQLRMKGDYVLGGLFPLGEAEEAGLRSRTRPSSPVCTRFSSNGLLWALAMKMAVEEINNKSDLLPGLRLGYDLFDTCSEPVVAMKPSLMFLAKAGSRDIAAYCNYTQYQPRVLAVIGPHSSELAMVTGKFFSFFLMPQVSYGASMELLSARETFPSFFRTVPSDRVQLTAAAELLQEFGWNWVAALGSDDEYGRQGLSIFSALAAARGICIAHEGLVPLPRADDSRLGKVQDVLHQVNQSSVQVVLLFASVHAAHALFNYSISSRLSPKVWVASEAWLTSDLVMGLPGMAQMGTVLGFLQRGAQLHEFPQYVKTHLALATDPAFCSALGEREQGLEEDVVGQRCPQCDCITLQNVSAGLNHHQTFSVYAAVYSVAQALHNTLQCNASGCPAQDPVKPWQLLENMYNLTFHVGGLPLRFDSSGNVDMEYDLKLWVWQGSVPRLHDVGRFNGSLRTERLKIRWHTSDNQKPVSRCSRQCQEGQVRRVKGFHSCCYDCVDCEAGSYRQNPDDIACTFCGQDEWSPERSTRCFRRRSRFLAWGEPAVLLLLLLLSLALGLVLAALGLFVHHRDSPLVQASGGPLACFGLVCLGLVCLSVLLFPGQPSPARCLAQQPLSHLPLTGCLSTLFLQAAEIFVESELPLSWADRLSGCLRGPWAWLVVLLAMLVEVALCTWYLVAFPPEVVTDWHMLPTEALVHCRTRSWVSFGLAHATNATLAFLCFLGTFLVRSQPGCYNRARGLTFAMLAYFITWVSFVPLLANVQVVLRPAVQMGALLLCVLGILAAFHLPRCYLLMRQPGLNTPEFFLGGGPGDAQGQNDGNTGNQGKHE
Structure (SMILES),EC50 [1] [mM],effect of the added compound (1 mM) on the response to L-Glu ([1]; H71Y),"Max ∆F/F0 ([1]; H71Y, GSH)","R1 = mutant EC50/WT EC50 ([1]; H71Y, GSH)",response of transfected cells [2],response of the receptor [3],response of the receptor [4]
"N[C@@H](CCC(=O)N[C@@H](CS)C(=O)NCC(=O)O)C(=O)O [GSH, γ-L-glutamyl-L-cysteinyl-glycine]",12.4,did not affect,0.65 ± 0.11,4.9,did not respond,,
"N[C@@H](CCC(=O)O)C(=O)O [L-Glu, L-glutamic acid, reference compound]",,,,,,did not respond,did not respond
